Results as given in paper PMC11901438, “Synthesis and Evaluation of Boron-Containing Heterocyclic Compounds with Antimicrobial and Anticancer Activities” (Molecules, 2025).
In brackets after ≈: the same amount, converted by molar mass.

Legend:
[1] = system: M. tuberculosis H37RV ATCC 27294 strain; test: Resazurin microtiter assay (REMA), MIC90; format: cell-based; settings: Mycobacterium tuberculosis, cut-off 25 µM
SCC-25 cells = test: MTT anticancer assay in SCC-25 cells; format: cell-based; settings: for SI (selectivity index): NOK-si versus SCC-25; for IC50: MTT, 24 h
Description: (§1) Boronic acid and benzoboroxole derivatives have been identified as potential anticancer agents. To investigate their efficacy against head and neck cancer cell lines, SCC-25 cells were utilized in this study, as a model for oral squamous cell carcinoma. Additionally, cytotoxicity was performed in normal oral keratinocytes NOK-si cells to evaluate the selective index of the compounds. […] The selectivity of the compounds is quantified by the selectivity index (SI), with those with an SI greater than 3.0 being considered promising for further evaluation, in accordance with internal protocols.
(§2) The SCC-25 was purchased from Rio de Janeiro Cell Bank, and NOK-si was kindly provided by Prof. Carlos Rossa from the School of Dentistry—UNESP. The cell lines were initially thawed and cultured in 25 cm^2 cell culture flasks. Cell growth was monitored using a microscope, and the culture medium was changed periodically. Upon reaching confluency, cell dissociation was achieved by adding 5 mL of trypsin (Sigma-Aldrich, St Louis, MO, USA) and incubating the bottles in a CO2 incubator for 10 min. Subsequently, the cells were transferred to 15 mL Falcon tubes and centrifuged at 2000 rpm for 10 min. Cell counting was performed using a Countess II FL automated cell counter (ThermoFischer, Waltham, MA, USA). The cells were seeded at a density of 30,000 cells per well in 96-well plates. The plates were then incubated at 37 °C in 5% CO2 for 24 h. Following this, test compounds were incubated for another 24 h at 10 different concentrations: 50, 25, 12.5, 6.25, 3.12, 1.56, 0.78, 0.39, 0.19, and 0.097 µg/mL. After the specified time, MTT reagent (3 mg/mL) (Sigma-Aldrich, St Louis, MO, USA) dissolved in phenol-free RPMI 1640 was added and incubated for 4 h. The formed MTT crystals were solubilized using 2-propanol P.A (Sigma-Aldrich, St Louis, MO, USA) with agitation. Absorbance was read at 562 nm using an EZ Read 400 microplate reader (Biochrom, Cambridge, UK) and ADAP 2.0 Biochrom software (version 2.0). IC50 values and graphs were calculated by Dr. Paula Aboud Barbugli using Excel and Prism software (version 10.4.1). The MTT assay results were evaluated for normality using the Shapiro–Wilk test, followed by one-way ANOVA with Tukey’s post hoc test at a significance level of 5%.

T. rubrum ATCC 28189 = test: Antifungal susceptibility test (CLSI M38-A2 microdilution, resazurin), MIC90; settings: Trichophyton rubrum, ATCC28189, read-out: T. rubrum ATCC 28189 MIC90
[2] = system: T. mentagrophytes (ATCC 11481); test: as above; settings: Trichophyton mentagrophytes, ATCC11481|ATCC28189, read-out: T. mentagrophytes ATCC 28189 MIC90
NOK-si cells = test: MTT cytotoxicity assay in normal oral keratinocytes NOK-si; format: cell-based; settings: Keratinocyte, 24 h, read-out: NOK-si IC50
Description: as §1, §2

HaCaT cell line = test: Resazurin cytotoxicity assay using HaCaT cells; format: cell-based, human; settings: compared to the benzoboroxole derivatives 44 and 45
Description: For the cytotoxicity assay, the HaCaT cell line, which is characterized as immortalized normal human keratinocytes, was used.
For the cytotoxicity assay, the HaCat cell line, characterized as immortalized normal human keratinocytes, was used. The cells were maintained in (DMEM) supplemented with 10% of bovine fetal serum (BFS) (Sigma-Aldrich, St Louis, MO, USA) in cell culture bottles with 5% CO2 at 37 °C. After a confluence of 75%, the cells were treated with trypsin + EDTA 0.25%, centrifugated at 1500 rpm for 10 min, and 5 × 10^4 cells/well were seeded in 96-well plates for incubation for 24 h for cell adhesion before treatment. After adhesion, the cells were treated with 100 µL of the compounds 34 and 40, with fungi activity in concentrations between 3.90 and 125 µg/mL. Regarding the controls, DMSO in the concentration range of (1–4%) was used as a positive control for cytotoxicity; the beyond negative control comprised HaCaT cells only in DMEM medium (Sigma-Aldrich, St Louis, MO, USA). After 24 h of treatment, 30 µL of resazurin 50 µM was added to each well for 4 h, and the plates were read at 560 and 600 nm using microplate reader BioTek (Agilent, Santa Clara, CA, USA), Gen 5 software (version 2.09). The […] (IC50) for each compound was determined based on resazurin reduction. Three independent assays were performed.

| Structure (SMILES) | MIC90 [1] [µM] | killing effect in SCC-25 cells (SCC-25 cells) | SI (selectivity index) (SCC-25 cells) | MIC90 (T. rubrum ATCC 28189) [µM] | MIC90 [2] [µM] | IC50 (SCC-25 cells; Homo sapiens, SCC-25, 24 h) [µM] | CC50 (NOK-si cells) [µM] | cytotoxic effects in HaCaT cells (comparison in words) (HaCaT cell line) | IC50 (SCC-25 cells) [µM] |
| --- | --- | --- | --- | --- | --- | --- | --- | --- | --- |
| O=C(Nc1ccc(N2CCN(c3ccccn3)CC2)c(F)c1)c1ccc2c(c1)COB2O [Compound 44, N-{3-fluoro-4-[4-(pyridin-2-yl)piperazin-1-yl]phenyl}-1-hydroxy-1,3-dihydrobenzo[c][1,2]oxaborole-5-carboxamide] | > 25 | absent killing effect | <1 | 289 (≈ 125 µg/mL) | 146 (≈ 63.1 µg/mL) | – | – | – | – |
| O=C(Nc1ccc(N2CCCCCC2)c(F)c1)c1cccc(B(O)O)c1 [Compound 34, (3-{[4-(Azepan-1-yl)-3-fluorophenyl]carbamoyl}phenyl)boronic acid] | > 25 | – | 1.91 | 42 (≈ 15 µg/mL) | 21 (≈ 7.48 µg/mL) | 67.6 | 129 | higher cytotoxic effects | – |
| O=C(Nc1ccc(N2CCN(c3ccc(F)cc3)CC2)c(F)c1)c1cccc(B(O)O)c1 [Compound 31, [3-({3-Fluoro-4-[4-(4-fluorophenyl)piperazin-1-yl]phenyl}carbamoyl)phenyl]boronic acid] | > 25 | – | 3.73 | 286 (≈ 125 µg/mL) | 286 (≈ 125 µg/mL) | 59.1 | > 221 | – | – |
| O=C(Nc1ccc(N2CCN(c3ccccn3)CC2)c(F)c1)c1cccc(B(O)O)c1 [Compound 29, {3-({3-Fluoro-4-[4-(pyridin-2-yl)piperazin-1-yl]phenyl}carbamoyl)phenyl}boronic acid] | > 25 | – | <1 | 297 (≈ 125 µg/mL) | 297 (≈ 125 µg/mL) | 79.1 | 110 | – | 117 |
| O=C(Nc1ccc(N2CCN(c3ccccn3)CC2)c(F)c1)c1ccc(B(O)O)cc1 [Compound 35, [4-({3-Fluoro-4-[4-(pyridin-2-yl)piperazin-1-yl]phenyl}carbamoyl)phenyl]boronic acid] | > 25 | – | 3.37 | 297 (≈ 125 µg/mL) | 297 (≈ 125 µg/mL) | 45 | 221 | – | 45.6 |
| NNC(=O)c1ccncc1 [Isoniazide, reference compound] | 0.11 (≈ 0.0151 µg/mL) | – | – | – | – | – | – | – | – |
| O=C(Nc1ccc(N2CCSCC2)c(F)c1)c1ccc2c(c1)COB2O [Compound 45, N-(3-fluoro-4-thiomorpholinophenyl)-1-hydroxy-1,3-dihydrobenzo[c][1,2]oxaborole-5-carboxamide] | > 25 | – | <1 | 336 (≈ 125 µg/mL) | 336 (≈ 125 µg/mL) | 83 | 65.8 | – | – |
| O=C(Nc1ccc(N2CCOCC2)c(F)c1)c1ccc(B(O)O)cc1 [Compound 39, {4-[(3-Fluoro-4-morpholinophenyl)carbamoyl]phenyl}boronic acid] | > 25 | – | 1.04 | 363 (≈ 125 µg/mL) | 363 (≈ 125 µg/mL) | 74.1 | 77.1 | – | – |
| O=C(Nc1ccc(N2CCN(c3ccc(F)cc3)CC2)c(F)c1)c1ccc(B(O)O)cc1 [Compound 37, [4-({3-Fluoro-4-[4-(4-fluorophenyl)piperazin-1-yl]phenyl}carbamoyl)phenyl]boronic acid] | > 25 | – | 1.55 | 286 (≈ 125 µg/mL) | 286 (≈ 125 µg/mL) | 79.1 | 123 | – | – |
| O=c1[nH]cc(F)c(=O)[nH]1 [5-fluorouracil, reference compound] | – | – | – | – | – | 1800 | – | – | – |
| CN(C/C=C/C#CC(C)(C)C)Cc1cccc2ccccc12 [Terbinafine, reference compound] | – | – | – | 0.0001 (≈ 2.91e-05 µg/mL) | 2.5e-05 (≈ 7.29e-06 µg/mL) | – | – | – | – |
| O=C(Nc1ccc(N2CCSCC2)c(F)c1)c1ccc(B(O)O)cc1 [Compound 38, {4-[(3-Fluoro-4-thiomorpholinophenyl)carbamoyl]phenyl}boronic acid] | > 25 | – | <1 | 347 (≈ 125 µg/mL) | 347 (≈ 125 µg/mL) | – | 149 | – | – |
| O=C(Nc1ccc(N2CCN(c3ncccn3)CC2)c(F)c1)c1ccc(B(O)O)cc1 [Compound 36, [4-({3-Fluoro-4-[4-(pyrimidin-2-yl)piperazin-1-yl]phenyl}carbamoyl)phenyl]boronic acid] | > 25 | – | 1.00 | 297 (≈ 125 µg/mL) | 297 (≈ 125 µg/mL) | 133 | 134 | – | – |
| O=C(Nc1ccc(N2CCSCC2)c(F)c1)c1cccc(B(O)O)c1 [Compound 32, {3-[(3-Fluoro-4-thiomorpholinophenyl)carbamoyl]phenyl}boronic acid] | > 25 | – | <1 | 347 (≈ 125 µg/mL) | 347 (≈ 125 µg/mL) | – | – | – | – |
| O=C(Nc1ccc(N2CCOCC2)c(F)c1)c1cccc(B(O)O)c1 [Compound 33, {3-[(3-Fluoro-4-morpholinophenyl)carbamoyl]phenyl}boronic acid] | > 25 | – | <1 | 363 (≈ 125 µg/mL) | 363 (≈ 125 µg/mL) | – | – | – | – |
| O=C(Nc1ccc(N2CCN(c3ncccn3)CC2)c(F)c1)c1cccc(B(O)O)c1 [Compound 30, [3-({3-Fluoro-4-[4-(pyrimidin-2-yl)piperazin-1-yl]phenyl}carbamoyl)phenyl]boronic acid] | > 25 | – | <1 | 297 (≈ 125 µg/mL) | 297 (≈ 125 µg/mL) | – | – | – | – |
| O=C(Nc1ccc(N2CCCCCC2)c(F)c1)c1ccc(B(O)O)cc1 [Compound 40, (4-{[4-(Azepan-1-yl)-3-fluorophenyl]carbamoyl}phenyl)boronic acid] | > 25 | – | 1.49 | 88 (≈ 31.3 µg/mL) | 42 (≈ 15 µg/mL) | 85.1 | 127 | higher cytotoxic effects | – |
